Measured values reported in US5877202A, “Indole derivatives useful to treat estrogen-related neoplasms and disorders” (priority 1996, dated 1999).
Values joined by “and” are separate entries in the source; they are usually repeats but may differ in a detail not shown here. Equal entries are not always repeated.

What was measured:
[1] = tested on: hormone-dependent breast cancer; conditions: cited from earlier work
[2] = tested on: MCF-7 human breast tumor cells; assay: Clonigenic assay for MCF-7 human breast tumor cells; format: cell-based; conditions: for Colonies ± S.D.: 24 hours treatment, grown 22 days
Method: MCF-7 cells (10^7) are added to 100 mm tissue culture dishes, allowed to adhere for 24 hours and then treated with either MDL 101,906 or ICI 164,384 for 24 hours. The cells are removed from the dishes with trypsin/EDTA, and washed twice by centrifugation. The cells were counted and 500 cells from each treatment group are added to triplicate wells of 6-well culture dishes. The cells are grown for 22 days. Colonies 1 mm diameter or greater are counted.

mouse estrogen receptor = conditions: Fawell, S. E., et al. (1990); cited from earlier work
MCF-7 estrogen receptor = target: T1, MCF-7 estrogen receptor (Homo sapiens, UniProt P03372); assay: Competitive binding assay, Relative Binding Affinities on binding of estradiol to MCF-7 estrogen receptor
T1 construct: estrogen receptor extracted from MCF-7 human breast tumor cells; endogenous in cells; host or cells: MCF-7 human breast cancer cells (nuclear extract, cytosol or whole cell extract)
T1 sequence (P03372 1-595): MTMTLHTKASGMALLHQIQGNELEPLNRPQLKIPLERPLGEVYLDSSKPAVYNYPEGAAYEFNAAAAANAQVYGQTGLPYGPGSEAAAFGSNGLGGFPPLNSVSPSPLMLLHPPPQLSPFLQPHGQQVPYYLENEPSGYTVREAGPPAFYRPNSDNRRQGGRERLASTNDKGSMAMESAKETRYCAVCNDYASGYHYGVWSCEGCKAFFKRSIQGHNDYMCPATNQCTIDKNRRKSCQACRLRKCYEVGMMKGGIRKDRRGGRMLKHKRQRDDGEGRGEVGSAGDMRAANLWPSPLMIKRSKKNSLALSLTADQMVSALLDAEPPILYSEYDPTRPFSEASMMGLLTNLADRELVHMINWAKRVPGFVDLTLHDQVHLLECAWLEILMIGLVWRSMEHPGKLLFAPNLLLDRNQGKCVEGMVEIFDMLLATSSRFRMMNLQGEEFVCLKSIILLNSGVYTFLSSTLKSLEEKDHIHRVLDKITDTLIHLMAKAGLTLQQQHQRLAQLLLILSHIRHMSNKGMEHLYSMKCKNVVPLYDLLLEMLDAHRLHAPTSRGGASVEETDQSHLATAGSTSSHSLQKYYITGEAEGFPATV
Method: Briefly, RBAs are determined from competitive binding assays with several concentrations of estradiol (E2) with and without test compound. After 16-18 hours of incubation at 4 degrees C., unbound [^3 H] E2 is separated from ER-bound [^3 H] E2. The IC50 is determined and the RBA is calculated as: […]

estrogen receptor mRNA = assay: Reduction of estrogen receptor mRNA levels in treated MCF-7 human breast tumor cells; format: cell-based;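 on Estrogen Receptor mRNA band intensity: Phosphoimager intensity of radioactive mRNA bands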
Method: (§1) After treatment with 30 μM drug for 24 hr, total RNA is isolated according to the guanidinium isothiocyanate method using an RNA preparation kit from 5 Prime-3 Prime, Inc., following the manufacturer's instructions. The RNA is separated by formaldehyde gel electrophoresis and transferred to a nylon membrane.

[3] = target: T2, estrogen receptor binding to an estrogen response element (Homo sapiens, UniProt P03372); assay: Inhibition of estrogen receptor binding to an estrogen response element in DNA mobility shift assays; format: biochemical, human (nuclear extract of MCF-7 human breast cancer cells)
T2 construct: estrogen receptor extracted from MCF-7 human breast tumor cells; endogenous in cells; host or cells: MCF-7 human breast cancer cells (nuclear extract, cytosol or whole cell extract)
T2 sequence (P03372 1-595): T1 sequence (P03372 1-595)
Method: (§2) Monolayers of MCF-7 human breast cancer cells are rinsed once with HBSS and scraped off culture dishes into 15 ml conical tubes with 5 ml HBSS. The cells are sedimented by centrifugation at 250×g for five minutes, suspended in 1 ml HBSS and sedimented by centrifugation at 2000 rpm in a tabletop centrifuge for five minutes in a 1.5 ml microfuge tube. Two PCV of a solution of a lysis buffer (25 mM HEPES, pH 7.8, 50 mM KCl, 0.5% Nonidet P 40, 2 mM dithiothreitol, 0.2 mM phenylmethylsulfonyl fluoride, 0.05 mg/ml leupeptin, 0.05 mg/ml aprotinin, 0.0025 mg/ml pepstatin, 0.005 mg/ml antipain) are added and cells are kept on ice for 15 minutes. Lysed cells are centrifuged for 3 minutes at 10,000×g, supernatant decanted, and kept as the cytosol fraction. Pellets are suspended in two PCV of extraction buffer (25 mM HEPES, pH 7.8, 500 mM KCl, 10% glycerol, 2 mM dithiothreitol and the above protease inhibitors), mixed for 20 minutes by inversion at 4 degrees C. and centrifuged at 10,000×g for 20 minutes. The supernatant is decanted and saved as nuclear extract. Both the nuclear extract and the cytosol are dialyzed for two hours against dialysis buffer (25 mM HEPES, pH 7.8, 50 mM KCl, 10% glycerol, 2 mM dithiothreitol and the above protease inhibitors). Nuclear and cytosol fractions are stored frozen at -80 degrees C. until used for mobility shift assays or determination of estrogen receptor content.
Briefly, to each reaction tube was added 0.01 mg nuclear extract, 2 μg poly dIdC, 50 mM NaCl, 1 mM dithiothreitol and 10 mM Tris, pH 7.5 in a total volume of 0.01 ml and the mixture was kept at room temperature for 10 minutes. A ^32 P-labelled estrogen response element [ERE]

estrogen receptors = target: T3, estrogen receptors (Homo sapiens, UniProt P03372); assay: Quantification of estrogen receptors in nuclear and whole cell extracts (ER-EIA monoclonal kit), Table 1; format: cell-based, human (MCF-7 human breast cancer cells); conditions: estrogen receptors in nuclear extracts
T3 construct: estrogen receptor extracted from MCF-7 human breast tumor cells; endogenous in cells; host or cells: MCF-7 human breast cancer cells (nuclear extract, cytosol or whole cell extract)
T3 sequence (P03372 1-595): T1 sequence (P03372 1-595)
Method: as §2
Whole cell extracts of tumor cells are prepared by the method of Reese and Katzenellenbogen, Nuc. Acids Res., 19: 6595-6602 (1991), with some modifications. Cell monolayers are rinsed once with HBSS, then scraped into HBSS and sedimented by centrifugation (5 min., 250×g). After resuspending in 1 mL HBSS, the cells are again sedimented at 250×g for 5 min at 4° C. The cell pellet is resuspended in lysis/extract buffer containing 20 mM Tris, pH 7.5, 10% glycerol (v/v), 0.5M sodium chloride and 0.5% NP-40 (v/v) and incubated on ice for 25 minutes, then the supernatants are dialyzed against 25 mM HEPES, pH 7.8, 10% glycerol (v/v), 0.5 mM dithiothreitol and 50 mM potassium chloride for 2 hours at 4° C. Both the lysis/extraction and the dialysis buffers contain protease inhibitors which included 0.5 mM phenylmethylsulfonylfluoride, 0.05 mg/mL leupeptin, 0.05 mg/mL aprotinin, 0.00-25 mg/mL pepstatin, and 0.005 mg/mL antipain. Dialyzed whole cell extracts are stored in aliquots at -80° C. until used.
The protein concentration for nucleus and cytosol fractions are determined with a BIO-RAD kit, according to the manufacturer's instructions.
Estrogen receptor levels in nuclear and whole cell extracts of tumor cells were quanitated using the ER-EIA monoclonal kit manufactured by Abbott Laboratories (Diagnostic Division) according to the kit instructions.
receptors in nuclear extracts.
.dagger.WCE refers to IC50 value for estrogen receptors in whole cel
A slash dividing two numbers indicates the results of two separate

GAPDH mRNA = GAPDH mRNA levels in treated MCF-7 human breast tumor cells (positive control probe); format: cell-based; conditions: 30 μM, 24 hr;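 further: Phosphoimager intensity of radioactive mRNA bands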
Method: as §1

[4] = read-out: integrated volume of shifted ERE oligo as percentage of control, given as % inhibition

Q: What does the source list for CC/C(=C(\c1ccccc1)c1ccc(OCCN(C)C)cc1)c1ccccc1 [tamoxifen]?
A: patients who do not respond to tamoxifen treatment despite presence of ERs in the malignant tissue ([1]; Maass, H., et al., Cancer, 46:2783 (1980)): About 40%; toxicological problems associated with tamoxifen treatment ([1]; in vivo): tumor flares, vaginal cornification and hypercalciemia

Q: Which “Colonies ± S.D.” value ([2]; 0.1 μM) does the source give for CCCCN(C)C(=O)CCCCCCCCCC[C@@H]1Cc2cc(O)ccc2[C@H]2CC[C@]3(C)[C@@H](O)CC[C@H]3[C@H]12 [ICI 164,384, 11-(3-17β-dihydroxyoestra-1,3,-5(10)-trien-7α-yl)-N-n-butyl-N-methylundecanamide, reference compound] here?
A: 48 ± 6

Q: And the “Colonies ± S.D.” value ([2]; 1.0 μM)?
A: 40 ± 2

Q: And the activity at 0.1 µM ([2]; Homo sapiens, MCF7, 528 h, 0.1 μM, read-out: Colonies, % Control)?
A: 145%

Q: What about the activity at 1 µM ([2]; Homo sapiens, MCF7, 528 h, 1.0 μM, read-out: Colonies, % Control) of the same molecule?
A: 121%

Q: What about the “inhibition of DNA binding of the mouse estrogen receptor” value (mouse estrogen receptor) of the same molecule?
A: inhibit DNA binding of the mouse estrogen receptor by interfering with receptor dimerization

Q: Which “inhibition of estradiol binding to MCF-7 ER” value (MCF-7 estrogen receptor; doses of 100 or 200 nM) does the source give for CCCCN(C)C(=O)CCCCCCCNC(=O)Cc1c(-c2ccc(O)cc2)n(Cc2ccccc2)c2ccc(O)cc12 [MDL 103,324, 8-[[5-Hydroxy-1-benzyl-2-[(4-hydroxy)-phenyl]-1H-indol-3-yl]-acetylamino]-octanoic acid methyl-butyl-amide] here?
A: did not significantly inhibit

Q: And the “inhibition of estradiol binding to MCF-7 ER” value (MCF-7 estrogen receptor; typically, at doses of 100 or 200 nM)?
A: less than 10%

Q: And the ER/GAPDH mean (estrogen receptor mRNA; 30 μM, 24 hr, mean of replicates 1 and 2)?
A: 0.74

Q: And the ER/GAPDH (estrogen receptor mRNA; 30 μM, 24 hr, replicate 1)?
A: 0.61

Q: What about the “Estrogen Receptor mRNA band intensity” value (estrogen receptor mRNA; 30 μM, 24 hr, replicate 1) of the same molecule?
A: 5,128

Q: What about the ER/GAPDH (estrogen receptor mRNA; 30 μM, 24 hr, replicate 2) of the same molecule?
A: 0.87

Q: And the “Estrogen Receptor mRNA band intensity” value (estrogen receptor mRNA; 30 μM, 24 hr, replicate 2)?
A: 7,077

Q: And the activity at 30 µM (estrogen receptor mRNA; Homo sapiens, MCF7, 24 h, read-out: ER/GAPDH % Control)?
A: 20%

Q: And the IC50 [3]?
A: 8.5 µM and 18 µM

Q: And the inhibition at 2 µM [3, 4]?
A: 60%

Q: What about the inhibition at 5 µM [3, 4] of the same molecule?
A: 68%

Q: What about the inhibition at 10 µM [3, 4] of the same molecule?
A: 58%

Q: And the inhibition at 20 µM [3, 4]?
A: 46%

Q: What about the inhibition at 30 µM [3, 4] of the same molecule?
A: 50%

Q: What about the IC50 (estrogen receptors) of the same molecule?
A: 18 µM

Q: What about the “GAPDH mRNA band intensity” value (GAPDH mRNA; replicate 1) of the same molecule?
A: 8,300

Q: And the “GAPDH mRNA band intensity” value (GAPDH mRNA; replicate 2)?
A: 8,118
